Where “and” joins values, the source holds several entries; their conditions need not be identical. Equal values may be shown once.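 Method: 48-hour compound exposure of cells in 96-well plates, five concentrations, linear interpolation of endpoints. GI50 = concentration required for 50% inhibition of growth. TGI: total growth inhibition.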
Assays:
Test in all cases: NCI tumour cell line growth inhibition, 48 h
[1] = system: DLD-1 colon
[2] = system: DMS 273 small cell lung
[3] = system: SNB-78 CNS
[4] = system: DMS 114 small cell lung
[5] = system: XF 498 CNS
[6] = system: HOP-18 NSCLC
[7] = system: RXF-631 renal

| SMILES | TGI [1] [µM] | TGI [2] | TGI [3] [µM] | TGI [4] | TGI [5] [µM] | TGI [6] | TGI [7] [µM] | GI50 [2] | GI50 [4] |
| --- | --- | --- | --- | --- | --- | --- | --- | --- | --- |
| CCCCc1c2c(nc3c1CCc1cc4c(nc1-3)-c1nc3c(c(CCCC)c1CC4)CCC/C3=C\c1ccccc1)/C(=C/c1ccccc1)CCC2 | > 100 | > 100 µM | > 100 | > 100 µM | 66.6 |  |  |  |  |
| COc1cccc(NC(=O)CSc2nnc(-c3ccc(N=Cc4ccc(Cl)cc4)cc3)o2)c1 |  |  | > 100 | 46.9 µM | 37.7 | > 100 µM |  |  |  |
| CC(C)(C)N=C1CC(C)(C)c2ccccc2C(=Nc2ccccc2)S1 | > 100 | > 100 µM | > 100 | 83.4 µM | 45.5 |  |  |  |  |
| COc1cc(C2C3=C(CCC3=O)Oc3cc4c(cc32)OCO4)cc(OC)c1OC (configuration not stated) |  | > 100 µM | > 100 | 0.725 µM | 0.736 | > 100 µM | 78.3 |  |  |
| CN1CCn2c(Br)ccc2C1=O |  | > 100 µM | > 100 |  | > 100 |  |  |  |  |
| COc1ccc(/C=C2\Cc3ccccc3C2=O)cc1OC | > 100 |  | > 100 | > 100 µM | > 100 |  |  |  |  |
| O=S1(=O)NNC(=NCc2ccc(Cl)cc2)c2ccccc21 | > 100 | > 100 µM | > 100 | > 100 µM | > 100 |  | > 100 |  |  |
| Cc1csc2c1C(=O)c1ccsc1C2=O | 10.6 | 4.45 µM | 16.5 | 3.1 µM | 5.06 | 3.73 µM |  |  |  |
| CCOc1ccc2[nH]c3c(C)c4cc[n+](C)cc4c(C)c3c2c1 | > 100 | 6.33 µM and 13.8 µM | > 100 | 2.74 µM and 4.7 µM |  | 33.6 µM and 49.2 µM |  | 0.651 µM and 1.33 µM | 0.48 µM and 1.24 µM |
| CC1(O)C=CC2CCC1C2O (configuration not stated) | > 100 | > 100 µM | > 100 | 32.1 µM | > 100 | > 100 µM |  |  |  |
| O=c1[nH]c(=O)n(C2OC(COP(=O)(O)OP(=O)(O)O)C(O)C2O)cc1F (configuration not stated) | > 50 | > 50 µM | > 50 | > 50 µM | > 50 | > 50 µM |  |  |  |
| Cc1ccc(C(=O)N(C(C)C)C(C)C)cc1N=NN(C)C | > 100 | > 100 µM | > 100 |  |  |  |  |  |  |
| C/C(=N\NC(N)=O)C(CN1CCCCC1)C(c1ccccc1)c1c(O)c2ccccc2oc1=O (configuration not stated) | > 100 | > 100 µM | > 100 | > 100 µM |  | > 100 µM | > 100 |  |  |
